Source: PubChem BioAssay (NCI)
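48-hour exposure; five concentrations; linearly interpolated endpoints. TGI: concentration producing complete growth inhibition.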

How the values were obtained:
Test in all cases: NCI-60 cell line screen, 48 h
[1] = system: A549 NSCLC
[2] = system: HCC-2998 colon
[3] = system: LOX IMVI melanoma
[4] = system: T-47D breast
[5] = system: HT29 colon
[6] = system: COLO 205 colon
[7] = system: OVCAR-4 ovarian
[8] = system: CCRF-CEM leukemia
[9] = system: MOLT-4 leukemia
[10] = system: NCI-H460 lung
[11] = system: EKVX NSCLC
[12] = system: SR leukemia
[13] = system: IGROV1 ovarian
[14] = system: SNB-19 CNS
[15] = system: SF-295 CNS
[16] = system: M14 melanoma
[17] = system: CAKI-1 renal
[18] = system: PC-3 prostate
[19] = system: OVCAR-5 ovarian
[20] = system: U251 CNS
[21] = system: SW-620 colon
[22] = system: HL-60(TB) leukemia
[23] = system: HCT-116 colon
[24] = system: SK-MEL-2 melanoma
[25] = system: SF-539 CNS
[26] = system: NCI-H23 lung
[27] = system: OVCAR-8 ovarian
[28] = system: MDA-N
[29] = system: SK-MEL-5 melanoma
[30] = system: K-562 leukemia
[31] = system: MDA-MB-231 breast
[32] = system: DU-145 prostate
[33] = system: HS 578T breast
[34] = system: SK-MEL-28 melanoma
[35] = system: SK-OV-3 ovarian
[36] = system: MDA-MB-435
[37] = system: ACHN renal
[38] = system: HCT-15 colon
[39] = system: SF-268 CNS
[40] = system: SNB-75 CNS
[41] = system: UACC-62 melanoma
[42] = system: RXF 393 renal
[43] = system: TK-10 renal
[44] = system: HOP-92 NSCLC
[45] = system: 786-0 renal
[46] = system: MCF7 breast
[47] = system: NCI-H226 lung
[48] = system: OVCAR-3 ovarian
[49] = system: HOP-62 NSCLC
[50] = system: MALME-3M melanoma
[51] = system: KM12 colon
[52] = system: BT-549 breast
[53] = system: UO-31 renal
[54] = system: SN12C renal
[55] = system: A498 renal
[56] = system: RPMI-8226 leukemia
[57] = system: UACC-257 melanoma
[58] = system: NCI/ADR-RES ovarian
[59] = system: NCI-H522 lung

SMILES: COc1ccc(C2=Cc3nc2c(-c2ccccc2)c2ccc([nH]2)c(-c2ccccc2)c2nc(c(-c4ccccc4)c4ccc([nH]4)c3-c3ccccc3)C=C2)cc1
- TGI [1]: > 100 µM
- TGI [2]: > 100 µM
- TGI [3]: > 100 µM
- TGI [4]: > 100 µM
- TGI [5]: > 100 µM
- TGI [6]: > 100 µM
- TGI [7]: > 100 µM
- TGI [8]: > 100 µM
- TGI [9]: > 100 µM
- TGI [10]: > 100 µM
- TGI [11]: > 100 µM
- TGI [12]: > 100 µM
- TGI [13]: > 100 µM
- TGI [14]: > 100 µM
- TGI [15]: > 100 µM
- TGI [16]: > 100 µM
- TGI [17]: > 100 µM
- TGI [18]: > 100 µM
- TGI [19]: > 100 µM
- TGI [20]: 91.3 µM
- TGI [21]: > 100 µM
- TGI [22]: > 100 µM
- TGI [23]: > 100 µM
- TGI [24]: > 100 µM
- TGI [25]: > 100 µM
- TGI [26]: > 100 µM
- TGI [27]: > 100 µM
- TGI [28]: > 100 µM
- TGI [29]: > 100 µM
- TGI [30]: > 100 µM
- TGI [31]: > 100 µM
- TGI [32]: > 100 µM
- TGI [33]: > 100 µM
- TGI [34]: > 100 µM
- TGI [35]: > 100 µM
- TGI [36]: > 100 µM
- TGI [37]: > 100 µM
- TGI [38]: > 100 µM
- TGI [39]: > 100 µM
- TGI [40]: > 100 µM
- TGI [41]: > 100 µM
- TGI [42]: > 100 µM
- TGI [43]: > 100 µM
- TGI [44]: > 100 µM
- TGI [45]: > 100 µM
- TGI [46]: > 100 µM
- TGI [47]: > 100 µM
- TGI [48]: > 100 µM
- TGI [49]: > 100 µM
- TGI [50]: > 100 µM
- TGI [51]: > 100 µM
- TGI [52]: > 100 µM
- TGI [53]: > 100 µM
- TGI [54]: > 100 µM
- TGI [55]: > 100 µM

SMILES: Cc1cc(S(=O)(=O)N/C(=C(\C#N)C(=O)c2ccccc2)[n+]2ccc(N(C)C)cc2)c([S-])cc1Cl
- TGI [1]: > 100 µM
- TGI [4]: > 100 µM
- TGI [5]: > 100 µM
- TGI [6]: > 100 µM
- TGI [7]: > 100 µM
- TGI [8]: > 100 µM
- TGI [9]: > 100 µM
- TGI [10]: > 100 µM
- TGI [11]: > 100 µM
- TGI [12]: > 100 µM
- TGI [13]: > 100 µM
- TGI [14]: > 100 µM
- TGI [15]: > 100 µM
- TGI [16]: > 100 µM
- TGI [17]: > 100 µM
- TGI [18]: > 100 µM
- TGI [19]: > 100 µM
- TGI [20]: > 100 µM
- TGI [22]: > 100 µM
- TGI [23]: > 100 µM
- TGI [24]: > 100 µM
- TGI [25]: > 100 µM
- TGI [26]: > 100 µM
- TGI [27]: > 100 µM
- TGI [28]: > 100 µM
- TGI [29]: > 100 µM
- TGI [30]: > 100 µM
- TGI [56]: > 100 µM
- TGI [31]: > 100 µM
- TGI [33]: > 100 µM
- TGI [34]: > 100 µM
- TGI [35]: > 100 µM
- TGI [36]: > 100 µM
- TGI [37]: > 100 µM
- TGI [38]: > 100 µM
- TGI [57]: > 100 µM
- TGI [39]: > 100 µM
- TGI [41]: > 100 µM
- TGI [42]: > 100 µM
- TGI [43]: > 100 µM
- TGI [44]: 0.994 µM
- TGI [45]: > 100 µM
- TGI [46]: > 100 µM
- TGI [47]: > 100 µM
- TGI [48]: > 100 µM
- TGI [49]: > 100 µM
- TGI [50]: 94 µM
- TGI [51]: > 100 µM
- TGI [58]: > 100 µM
- TGI [52]: > 100 µM
- TGI [59]: > 100 µM
- TGI [53]: > 100 µM
- TGI [54]: > 100 µM
- TGI [55]: > 100 µM

SMILES: CC1CC(c2ccccc2)Nc2nc3ccccc3n21 (stereo not given)
- TGI [1]: > 100 µM
- TGI [3]: > 100 µM
- TGI [4]: > 100 µM
- TGI [5]: > 100 µM
- TGI [6]: > 100 µM
- TGI [7]: > 100 µM
- TGI [8]: > 100 µM
- TGI [9]: > 100 µM
- TGI [10]: > 100 µM
- TGI [11]: > 100 µM
- TGI [12]: > 100 µM
- TGI [13]: > 100 µM
- TGI [14]: > 100 µM
- TGI [15]: > 100 µM
- TGI [16]: > 100 µM
- TGI [17]: > 100 µM
- TGI [18]: > 100 µM
- TGI [19]: > 100 µM
- TGI [20]: > 100 µM
- TGI [21]: > 100 µM
- TGI [22]: > 100 µM
- TGI [23]: > 100 µM
- TGI [24]: > 100 µM
- TGI [25]: > 100 µM
- TGI [26]: > 100 µM
- TGI [27]: > 100 µM
- TGI [28]: > 100 µM
- TGI [29]: > 100 µM
- TGI [30]: > 100 µM
- TGI [56]: > 100 µM
- TGI [31]: > 100 µM
- TGI [33]: > 100 µM
- TGI [34]: > 100 µM
- TGI [35]: > 100 µM
- TGI [36]: > 100 µM
- TGI [37]: > 100 µM
- TGI [38]: > 100 µM
- TGI [57]: > 100 µM
- TGI [39]: > 100 µM
- TGI [40]: > 100 µM
- TGI [41]: > 100 µM
- TGI [42]: > 100 µM
- TGI [43]: > 100 µM
- TGI [44]: > 100 µM
- TGI [45]: > 100 µM
- TGI [46]: > 100 µM
- TGI [47]: > 100 µM
- TGI [48]: > 100 µM
- TGI [49]: > 100 µM
- TGI [50]: > 100 µM
- TGI [51]: > 100 µM
- TGI [58]: > 100 µM
- TGI [52]: > 100 µM
- TGI [59]: > 100 µM
- TGI [53]: > 100 µM
- TGI [55]: > 100 µM
